Results published in patent publication US20250161409A1, “COMPOSITIONS FOR TREATING HYPERHIDROSIS” (PROSPERA BIOTECH, S.L., priority 2022, published 2025).
No end group written: not given here.

Assays:
[1] = tested on: permeabilized chromaffin cells; assay: Inhibition of calcium-induced release of catecholamines in digitonin-permeabilized chromaffin cells; format: cell-based; details: 1 mM peptide
Description: The neuronal-exocytosis (neurosecretion) inhibiting capabilities of the known neuronal exocytosis inhibitors became evident through a test that evaluates the strength of said compounds in inhibiting the release of catecholamines induced by calcium in chromaffin cells permeabilized with the detergent digitonin, in accordance with the method described by Gutiérrez et al. (FEBS Lett 1995, 372, 39-43, and J. Biol. Chem. 1997, 272, 2634-2639); as well as an in vitro reconstitution test of the fusion complex (SNARE).
Briefly, the chromaffin cell cultures are incubated with [3 H]-epinephrine and [3 H]-norepinephrine, are permeabilized with 20 μM digitonin, and stimulated with calcium (10 μM), in the presence of the compounds to be tested, and the amount of radioactivity released by the cells to the extracellular medium, which is a reflection of the exocytosis of [3 H]-epinephrine and [3 H]-norepinephrine, is measured.

[2] = tested on: fusion protein complex (SNARE); assay: In vitro reconstitution (ELISA) of the fusion protein complex (SNARE); format: biochemical; details: peptide present during the assembly of the fusion complex
Description: An additional test of in vitro reconstitution was performed to determine the ability of the peptides to interfere with the formation and stability of the fusion complex (SNARE). The test consists of evaluating the in vitro reconstitution of the fusion protein complex with recombinant proteins produced in Escherichia coli. The reconstitution tests, based on ELISA (Enzyme-Linked Immuno Assay) methods, involve the immobilization of protein SNAP-25 in 96-well plates and the subsequent formation of the fusion protein complex by adding the proteins VAMP and syntaxin in the presence and/or absence of the peptides of the invention. The detection of the complex was performed using an antibody against protein syntaxin (anti-syntaxin), followed by an antibody which recognizes the anti-syntaxin antibody, covalently tagged with a peroxidase. The amount of fusion protein complex was tracked by adding 1,2-phenylenediamine dichloride, whose reaction with the peroxidase produces a product with an orangish-yellow color that absorbs 492 nm in an acid medium.

[3] = Attenuation of excessive sweating / hyperhidrosis (summary statements); format: in vivo

Molecule | inhibition of the release of catecholamines [1] | amount of fusion complex (SNARE) formed in presence of peptide [2] | attenuation of excessive sweating ([3]; 0.1-0.01%) | attenuation of hyperhidrosis and excessive sweating ([3]; formulation containing 0.5-1.0% Argireline)
SEQ. ID NO. 2: peptide from the amino end of SNAP-25 (ELEEMQRRADQLA) | approximately 35% | significant decrease |  | 
SEQ. ID NO. 1: peptide from the amino end of SNAP-25; 6 amino acid peptide whose acetylated derivative is Argireline (EEMQRR) | approximately 20% | significant decrease |  | 
CCCCCCCCC(=O)OCC(=O)NCc1cc(OC)c(O)cc1I [Calmpasin®, 2-((4-hydroxy-2-iodo-5-methoxybenzyl)amino)-2-oxoethyl nonanoate] |  |  | unable to attenuate excessive sweating | 
Ac-Glu-Glu-Met-Gln-Arg-Arg (Ac-EEMQRR) [Argireline®, acetyl-hexapeptide commercialized under the tradename Argireline® by Lipotec, S. A] |  |  |  | modest effect
